Source: patent publication US8609695B2, “Methods of treating and/or suppressing insulin resistance” (Endorecherche, Inc., priority 1999, dated 2013)
Marks after values point to notes of the source that are not given here.

Assays:
[1] = system: ovariectomized female rats; assay: 20-day treatment with EM-652.HCl, estradiol and DHEA, body fat (Example 6); assay type: in vivo, Rattus norvegicus; settings: OVX rats
Description: d) Diet: Certified Rodent feed (Lab Diet #5002, pellets) and tap water were provided ad libitum during the acclimation period. During the study period, the rats received an enriched carbonhydrate diet ad libitum. The enriched diet (diet #3) was composed of (g/100 g): Corn starch, 31.2; Dextrose, 31.2; Casein, 20.0; Corn oil, 6.4; dl-Methionine, 0.3; Vitamin mix, 1.0; AIN-76 mineral mix, 4.9; Fiber, 5.0.
80 rats were assigned to 8 groups of 10 rats for the conduct of the study outlined below:
On day 0 of the study, rats from groups 2 to 8 were ovariectomized, by bilateral flank incision, under Isoflurane-induced anesthesia. Rats from group 1 were sham-operated.
The administration of the test articles or vehicle began on Day 1 (the day following the ovariectomy). The tested compounds were given as suspensions in 0.4% methylcellulose by oral gavage (0.5 ml/gavage) for 20 days.
On day 21 of the study (prior to the necropsy), body composition was determined on whole body skeleton of animals under Isoflurane-induced anesthesia using dual energy x-ray absorptiometry (DEXA; QDR 4500A, Hologic) in order to determine the effect of treatments on fat percentage.
Right and left retroperitoneal adipose tissue were collected and weighed.

[2] = system: ovariectomized female rats; assay: SERM comparison, energy balance and lipid-lipoprotein metabolism (Example 10); assay type: in vivo, Rattus norvegicus; settings: OVX rats, 20 days
Protocol: For this purpose, tested compounds were administered by oral gavage for 20 days (0.5 mg/rat for each compound; 0.5 ml/rat) in 0.4% methylcellulose to ovariectomized female rats.
d) Diet: • During acclimation period, rats received a certified rodent diet (Lab Diet #5002, pellet) and tap water ad libitum while during study period, they received a high carbonhydrate diet (diet #3) and tap water ad libitum. The diet was composed of (g/100 g): Corn starch, 31.2; Dextrose, 31.2; Casein, 20.0; corn oil, 6.4; dl-Methionine, 0.3; Vitamine mix, 1.0; AIN-76 mineral mix, 4.9; fiber, 5.0. Rats were fasted (with access to water only) around 07 h00 the morning of their necropsy Randomization:
Test group: Seventy-seven rats were assigned to 8 groups of 9-10 rats for conduct of the study outlined below.
On day 0 of the study, rats from group 2 to 8 were ovariectomized (by bilateral flank incision) under Isoflurane anesthesia. Rats from group 1 were sham-operated.
Rats were weighed on day 0 (surgery) and then, every 2 days during study period as well as on the day of necropsy.
Food consumption was evaluated every 2 days.
In order to determine the effect of treatments on fat percentage, body composition was measured on Day 17 of the study using dual energy x-ray absorptiometry (DEXA; QDR 4500A, Hologic, Waltham, Mass.).
On day 21 of the study, approximately 24 hours after the last dosing and 6 hours of fasting, animals under Ketamine-Xylazine anesthesia were killed by exsanguination at the abdominal aorta.
Blood lipids (Total cholesterol and Triglycerides) and glucose were measured on frozen serum samples using the Boehringer Mannheim Diagnostic Hitachi 911 Analyzer (Boehringer Mannheim Diagnostic Laboratory Systems). Circulating hormones and substrates (Insulin and leptin) were measured on serum sample using the following kits: • Insulin: Linco RIA kit • Leptin: Linco RIA kit Organs and Tissues Collected
The following tissues were collected and weighed: • Muscle (right soleus and right VLM), fat (right retroperitoneal and right inguinal), and brown adipose tissue.
A piece of ˜0.1 g of all tissues (except uterus and vagina) were frozen in liquid nitrogen and kept at −80 C for later determination of lipoprotein-lipase (LPL) activity.

ovariectomized rats = assay: 20-day treatment with EM-652.HCl, body fat, body weight and energy balance (Example 3); assay type: in vivo, rat; settings: OVX rats, 20 days
Protocol: Eight to ten week-old female Sprague-Dawley rats (Crl:CD(SD)Br) (Charles River Laboratory, St-Constant, Canada) weighing approximately 200-225 g at the start of treatment were used. The animals were acclimatized to the environmental conditions (temperature: 22±3° C.; 10-h light-14-h dark cycles, lights on at 06:00 h) for 1 week before starting the experiment. The animals were housed individually in stainless steel cages of conventional design and were allowed free access to tap water and a high carbohydrate mixed diet composed of (g/100 g): Corn starch, 31.2; Dextrose, 31.2; Casein, 20.0; corn oil, 6.4; dl-Methionine, 0.3; Vitamine mix, 1.0; AIN-76 mineral mix, 4.9 and fiber, 5.0. The experiment was conducted in a Canadian Council on Animal Care approved facility in accordance with the CCAC Guide for Care and Use of Experimental Animals.
On day 1 of the study, the animals of the appropriate groups were bilaterally ovariectomized (OVX) under isoflurane anesthesia. […] The treatment with EM-652.HCl or vehicle alone (0.4% methylcellulose in water) was initiated on day 2 of the study. The compound or vehicle was given once daily by oral gavage in 0.5 ml/rat for 20 days. Body weights and food consumption were recorded every 2 days.
Approximately 24 hours after the last dosing, overnight fasted animals were anesthesized with ketamine-xylazine and blood drawn by cardiac puncture. The blood was collected as well as white and brown adipose tissues.
Body weight, food intake, and body gains in energy, fat, and protein were determined according to Deshaies et al, Am. J. Physiol., 1997; 273, E355-E362 (1997).
Lipoprotein lipase activities were determined according to Deshaies et al, Am. J. Physiol., 1997; 273, E355-E362 (1997).

ovariectomized rat = assay: 35-week treatment, total body fat and body weight of ovariectomized rat (Example 1); assay type: in vivo; settings: OVX rats; for Body Weight at Necropsy: 37 weeks
Protocol: The animals were housed three per cage and were allowed free access to tap water and a pelleted certified rodent feed (Lab Diet 5002, Ralston Purina, St-Louis, Mo.). The experiment was conducted in a Canadian Council on Animal Care approved facility in accordance with the CCAC Guide for Care and Use of Experimental Animals. […] The appropriate compound or vehicle alone was given once daily by oral gavage in 0.5 ml/rat for 37 weeks. Approximately 24 hours after the last dosing, overnight fasted animals were killed by exsanguination at the abdominal aorta under isoflurane anesthesia. After 35 weeks of treatment, individual rats under anesthesia with isoflurane had their whole body skeleton as well as their right femur scanned using dual energy x-ray absorptiometry (DEXA; QDR 4500A, Hologic, Waltham, Mass.) and a Regional High Resolution Scan software. The scan field size used for the whole body was 30.492×17.912 cm, the resolution was 0.1512×0.0640 cm and the scan speed was 2.499 mm/sec. The fat body composition of the whole body was determined. Data are expressed as the means±SEM. Statistical significance was determined according to the multiple-range test of Duncan-Kramer (1956).

[3] = system: ovariectomized female rats; assay: 34-week treatment with ethynyl estradiol, EM-652.HCl, Raloxifene and DHEA, body fat (Example 7); assay type: in vivo, rat; settings: OVX rats, 34 weeks
Protocol: The objective of this study was to assess the effect of a combined treatment with EM-652.HCl, and DHEA on body fat and body weight parameters in ovariectomized rats. For this purpose, ovariectomized rats received daily administration of EM-652.HCl (1 mg/kg), and DHEA (80 mg/kg) alone or in combination, for 34 weeks. EM-652.HCl was administered orally while DHEA was applied topically on dorsal skin. One group of animals was orally treated with 17-ethynylestradiol (0.1 mg/kg) and Raloxifene (EM-1105; 1 mg/kg) for comparison.
Ten to twelve week-old female Sprague-Dawley rats (Crl:CD(SD)Br) weighing approximately 235-250 g at start of treatment were used. Eighty rats were randomly distributed between 7 groups of 11 to 12 animals per group as follows: 1) Intact control; 2) OVX control; 3) OVX+EE2 (0.1 mg/kg); 4) OVX+raloxifene (1 mg/kg); 5) OVX+EM-652.HCl (1 mg/kg); 6) OVX+DHEA (80 mg/kg); 7) OVX+EM-652.HCl+DHEA. On day 1 of the study, the animals of the appropriate groups were bilaterally ovariectomized (OVX) under isoflurane anesthesia. EM-652.HCl, raloxifene and EE2 (Steraloids) were administered once daily by oral gavage as suspension in 0.4% methylcellulose (0.5 ml/rat) for 34 weeks while DHEA was applied topically once daily on dorsal skin as a solution in 50% ethanol-50% propylene glycol (0.5 ml/rat) for the same time period. Approximately 24 hours after the last dosing, overnight fasted animals were killed by exsanguination at the abdominal aorta under isoflurane anesthesia. Left and right retroperitoneal adipose tissues were collected and weighed.
After 34 weeks of treatment, individual rats under anesthesia with isoflurane had their whole body skeleton scanned using dual energy x-ray absorptiometry (DEXA; QDR 4500A, Hologic, Waltham, Mass.) and a Regional High Resolution Scan software. The body composition (including fat percentage) was determined.
Data were expressed as the means±SEM.

[4] = high carbohydrate diet, 0.5 mg/rat oral gavage
[5] = EM-652.HCl 0.5 mg/rat oral once daily, E2 implant
[6] = EE2 0.1, Raloxifene 1, EM-652.HCl 1 mg/kg oral, DHEA 80 mg/kg topical

Compound	Brown adipose tissue Lipoprotein lipase activity [2, 4]	Brown adipose tissue weight [2, 4]	Cumulative food intake [2, 4]	Serum glucose [2, 4]	Serum insulin [2, 4]	Serum leptin [2, 4]	Serum total cholesterol [2, 4]	Serum triglycerides [2, 4]	Soleus muscle Lipoprotein lipase activity [2, 4]	Soleus muscle weight [2, 4]	Total weight [2, 4]	VastusLateralis muscle weight [2, 4]	White adipose tissue inguinal Lipoprotein lipase activity [2, 4]	White adipose tissue inguinal weight [2, 4]	White adipose tissue retroperitoneal Lipoprotein lipase activity [2, 4]	Body Weight at Necropsy (ovariectomized rat; 0.01 mg/kg orally once daily)	Body Weight at Necropsy (ovariectomized rat; 0.03 mg/kg orally once daily)	Body Weight at Necropsy (ovariectomized rat; 0.1 mg/kg orally once daily)	Body Weight at Necropsy (ovariectomized rat; 0.3 mg/kg orally once daily)	Body Weight at Necropsy (ovariectomized rat; 1 mg/kg orally once daily)	also measured
C[C@]12CC[C@@H]3c4ccc(O)cc4CC[C@H]3[C@@H]1CC[C@@H]2O [E2, estradiol]	1198 ± 62 μU/g protein	0.211 ± 0.021 g	255 ± 9 g	11.8 ± 1.4 mmol/L	0.070 ± 0.007 nmol/L	0.309 ± 0.097 ng/mL	2.03 ± 0.15 mmol/L	0.43 ± 0.04 mmol/L	10.9 ± 2.0 μU/g protein	0.086 ± 0.003 g	198 ± 4 g	0.718 ± 0.026 g	416 ± 74 μU/g protein	0.158 ± 0.019 g	1442 ± 243 μU/g protein						decrease of body fat ([1]; 20 days): 46%; decrease of retroperitoneal adipose tissue ([1]; 20 days): 78%; Retroperitoneal adipose tissue ([1]; enriched carbohydrate diet, 20 days oral, EM-652.HCl 0.5, E2 0.5, DHEA 100 mg/rat): 0.81 ± 0.17 g; Fat % ([1]; enriched carbohydrate diet, 20 days oral, EM-652.HCl 0.5, E2 0.5, DHEA 100 mg/rat, DEXA day 21): 10.3 ± 0.6%; total energy intake, higher than that of intact animals (ovariectomized rats): 17%; Digestible energy intake (ovariectomized rats; [5]): 5511^a kJ; Enegery gain (ovariectomized rats; [5]): 903 kJ; Apparent energy (expenditure) (ovariectomized rats; calculated from energy intake and energy gain): 4609^a kJ
CC1=C(c2ccc(OC(=O)C(C)(C)C)cc2)[C@H](c2ccc(OCCN3CCCCC3)cc2)Oc2cc(OC(=O)C(C)(C)C)ccc21 [EM-800]																385 ± 17 g	364 ± 10 g	369 ± 17 g	359 ± 7 g	368 ± 6 g	decrease of the OVX-induced stimulation of body fat (DEXA) (ovariectomized rat; 0.01 mg/kg orally once daily, 35 weeks, FIG. 1): 78%
Cl.O=C(c1ccc(OCCN2CCCCC2)cc1)c1c(-c2ccc(O)cc2)sc2cc(O)ccc12 [Raloxifene]	960 ± 116 μU/g protein	0.307 ± 0.26 g	307 ± 8 g	13.8 ± 1.2 mmol/L	0.077 ± 0.10 nmol/L	1.39 ± 0.30 ng/mL	1.19 ± 0.08 mmol/L	1.20 ± 0.35 mmol/L	10.2 ± 2.0 μU/g protein	0.099 ± 0.003 g	230 ± 3 g	0.795 ± 0.055 g	579 ± 46 μU/g protein	0.245 ± 0.047 g	1510 ± 52 μU/g protein	439 ± 13 g	451 ± 14 g	389 ± 14 g	367 ± 9 g	342 ± 12 g	increment of body fat and retroperitoneal adipose tissue by ovariectomy [3]: prevented; Fat % ([3]; DEXA, EE2 0.1, Raloxifene 1, EM-652.HCl 1 mg/kg oral, DHEA 80 mg/kg topical): 22.8 ± 1.6%; Left retroperitoneal adipose tissue [3, 6]: 1.41 ± 0.13 g; Right retroperitoneal adipose tissue [3, 6]: 1.29 ± 0.12 g; Serum insulin (in words) ([2]; 0.5 mg/rat): decreased; White adipose tissue retroperitoneal weight [2, 4]: 1.32 ± 0.24 g; effect on body fat (DEXA) (ovariectomized rat; 0.01-1 mg/kg orally once daily, 35 weeks, FIG. 1): less active than EM-800
